Data as given in patent US8097422B2, “Kir channel modulators” (Salk Institute for Biological Studies, priority 2007, dated 2012).

Assays:
[1] = target: T1, GIRK2 channel (wild type) (Mus musculus, UniProt P48542); assay: whole-cell patch clamp, HEK293T cells transfected with GIRK2; format: cell-based; conditions: for desensitization of induced GIRK2 current in cells co-transfected with M2R and myristylated-phosducin / activation of wildtype GIRK2, percentage change from Ba++ sensitive basal current: 100 mM alcohols; for desensitization of induced GIRK2 current in cells co-transfected with M2R and myristylated-phosducin: 5 uM Carbachol
T1 construct: expressed in transfected cells; host or cells: HEK293T
T1 sequence (P48542 1-425): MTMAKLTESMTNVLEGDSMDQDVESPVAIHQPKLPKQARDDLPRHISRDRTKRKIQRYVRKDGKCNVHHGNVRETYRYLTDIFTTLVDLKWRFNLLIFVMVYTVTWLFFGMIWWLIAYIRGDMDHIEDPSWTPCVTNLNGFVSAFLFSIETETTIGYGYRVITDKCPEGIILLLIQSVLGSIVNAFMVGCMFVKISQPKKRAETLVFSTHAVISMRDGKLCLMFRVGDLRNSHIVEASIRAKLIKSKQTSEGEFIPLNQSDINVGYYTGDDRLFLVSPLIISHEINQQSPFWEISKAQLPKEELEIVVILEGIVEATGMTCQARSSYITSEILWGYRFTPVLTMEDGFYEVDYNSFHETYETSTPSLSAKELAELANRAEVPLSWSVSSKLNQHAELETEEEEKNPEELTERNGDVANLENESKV
Source text: (§1) GIRK2c, GIRK4, IRK1, M2R and m-Phosducin were subcloned into PCDNA3.1 vector (Invitrogen). Point mutations were introduced by Quickchange site directed mutagenesis kit (Stratagene). The GIRK2 PIP mutant was generated by overlap-PCR method. Briefly, amino acid 216-NLRKSHL-222 (SEQ ID NO: 25) of IRK1 was swapped into 228-DLRNSHL-234 (SEQ ID NO: 26) of GIRK2, in the region designated βC-βD loop in the crystal structure. Mutations were confirmed by automated DNA sequencing methods.
(§2) HEK 293T cells were cultured in DMEM supplemented with 10% FBS, and 1× Glutamax (Invitrogen) in a humidified 37° incubator with 5% CO2. Cells were plated in a 12 well dish, and were transiently transfected using Lipofectamine 2000 (Invitrogen). After 12-24 hrs, cells were re-plated to 12-mm glass coverslips coated with poly-D-Lysine (20 microgram/ml).
(§3) HEK293 cells were transfected with 0.2 micrograms of channel cDNA. The cells were co-transfected with 0.04 micrograms of eYFP cDNA to identify transfected cells. 0.8 micrograms of Muscarinic Receptor 2 (M2R) was also co-transfected for experiments with Carbachol. For experiments with and without m-phosducin, 0.8 ug of m-phosducin cDNA was used versus a PCDNA3.1 vector control.
(§4) Whole-cell patch clamp recordings were performed 24-72 hrs after transfection. Borosilicate glass electrodes (Warner Instruments) of […] filled with intracellular solution (130 mM KCl, 20 mM NaCl, 5 mM EGTA, 2.56 mM K2ATP, 5.46 mM MgCl2, 0.30 mM Li2GTP, and 10 mM HEPES (pH 7.4)) was used. Membrane currents were recorded using Axopatch 200B (Axon Instruments) amplifier, adjusted electronically for cell capacitance and series resistance (80-100%), filtered at 1 kHz with an 8-pole Bessel filter and digitized at 5 kHz with a Digidata 1200 interface (Axon Instruments). The cells rapidly perfused with a 20 mM K^+ (20K) solution (20 mM KCl, 140 mM NaCl, 0.5 mM CaCl2, 2 mM MgCl2 and 10 mM HEPES (pH7.4)). Alcohols, 5 μM Carbachol, and 1 mM BaCl2 (diluted in 20K solution) were applied from outside the cell with the rapid perfusion system (Warner Instruments). Whole-cell currents were measured using a ramp protocol that holds at −40 mV, steps to −100 mV then ramps to +50 mV and repeats every 2 seconds. Current-voltage relationships also were obtained from the ramp protocol. This protocol was used to measure the inwardly rectifying currents at −100 mV and to ensure stability of recording by monitoring a reversal potential and inward rectification. Current density was measured by dividing inward current at −100 mV by membrane capacitance that was compensated during the recording. Basal currents were measured as the Ba^++ blocked inward currents at −100 mV. Alcohol and Carbachol modulated currents were measured by averaging two consecutive current readings upon reaching steady state, and subtracting the averaged basal current before and after the application of modulator. Pooled data are presented as Mean±SEM and evaluated for statistical significance by a 1-way ANOVA, followed by Bonferroni's multiple comparison post-hoc test.

IRK1 channel = target: T2, IRK1 channel (Mus musculus, UniProt P35561); assay: whole-cell patch clamp, HEK293T cells transfected with IRK1; format: cell-based; conditions: n=5; for inhibition of IRK1 channel, percentage inhibition: equimolar 50 mM alcohol series
T2 construct: expressed in transfected cells; host or cells: HEK293T
T2 sequence (P35561 1-428): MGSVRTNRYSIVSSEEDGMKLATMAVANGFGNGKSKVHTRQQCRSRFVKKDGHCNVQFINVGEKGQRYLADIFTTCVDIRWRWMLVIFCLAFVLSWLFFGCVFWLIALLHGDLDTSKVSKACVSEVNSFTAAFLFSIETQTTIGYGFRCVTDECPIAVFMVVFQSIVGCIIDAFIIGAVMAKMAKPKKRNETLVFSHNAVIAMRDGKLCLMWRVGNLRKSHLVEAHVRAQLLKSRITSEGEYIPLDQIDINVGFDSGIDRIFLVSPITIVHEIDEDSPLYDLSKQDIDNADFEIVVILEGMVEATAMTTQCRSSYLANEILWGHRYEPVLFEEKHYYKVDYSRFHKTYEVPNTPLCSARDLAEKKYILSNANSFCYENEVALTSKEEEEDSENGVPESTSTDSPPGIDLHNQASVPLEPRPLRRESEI
Procedure: Using whole-cell patch clamp, technique in HEK293T cells transfected with IRK1 or GIRK2 channels, it was determined that MPD does in fact modulate these channels. Addition of 100 mM MPD inhibits the inward currents of the IRK1 channel, without changing the reversal potential or altering inward rectification (FIG. 1e).
as §1, §2, §3, §4

Compound	desensitization of induced GIRK2 current in cells co-transfected with M2R and myristylated-phosducin [1]	activation of wildtype GIRK2, percentage change from Ba++ sensitive basal current ([1]; n=32)	inhibition of IRK1 channel, percentage inhibition (IRK1 channel)	G-protein activation of wildtype GIRK2 by Carbachol, percentage change from basal current ([1]; 5 μM Carbachol, M2R co-transfected, n=32)	percent change of basal current, GIRK2 (positive = activation) ([1]; 100 mM MPD, -100 mV, n=5)	concentration inducing a noticeable activation of GIRK currents ([1]; dose response, GIRK2)	inhibition at 100000 µM (IRK1 channel; HEK-293T, 100 mM MPD, -100 mV, read-out: percent change of basal current, IRK)
1-propanol [1-PrOH]	no desensitization	486±34%	−12±2%	–	–	–	–
CCO [EtOH, ethanol]	no desensitization	119±5%	−5±1%	–	–	–	–
C[N+](C)(C)CCOC(N)=O [Carbachol]	rapid activation and desensitization	–	–	928±141%	–	–	–
1-butanol [1-BuOH]	–	–	−20±3%	–	–	–	–
CC(O)CC(C)(C)O (racemic) [MPD, 2-methyl-2,4-pentanediol]	no desensitization	305±19%	−25±3%	–	246±26.7%	10 mM	32.5 ± 3.9%
